Experimental data from patent US20020049151A1, “Therapeutic approaches to diseases by suppression of the NURR subfamily of nuclear transcription factors” (priority 2000, published 2002).
Entries after “also recorded” stand apart in the source; their conditions may differ.

Tests used:
Assay type in all cases: cell-based, human
NURR1 mRNA [1] = assay: Northern blot of NURR1 mRNA in primary synoviocytes; settings: for NURR1 mRNA levels after stimulation: 25 μM forskolin, 20 ng/ml PMA, 10 ng/ml TNFα, IL-1β, IL-6, 1 μM PGE2, CRH
Method: Regulation of gene expression by the protein kinase A and C pathways represent important signaling events in RA synoviocytes (Ben-Av et al., 1995; Crofford et al., 1994; Firestein and Manning, 1999). […] To investigate the involvement of the protein kinase C signaling pathways in NURR regulation, synoviocytes were treated with phorbal myristic acetate (PMA). […] In contrast, dexamethasone had little effect on forskolin- or PMA-induced NUR77 levels.
(§1) In FIG. 4 total RNA was extracted and northern blot analysis was performed. Filters were hybridized with a cDNA for NURR1 or NUR77 and also with GAPDH to control for loading and transfer. Synovial explants were left untreated [C] or incubated with 10^−8M CRH for the indicated times. (FIG. 4A) Confluent monolayers of primary synoviocytes were left untreated [C] or pretreated with 10^−8M dexamethasone (DEX) for 2 h prior to the addition of 25μM forskolin (FOR) or 20 ng/ml of phorbal myristic acetate (PMA). (FIG. 4B)
Therefore the pathological importance of the NURR transcription factors in inflammatory joint disease was further examined by determining the ability of pro-inflammatory agonists to regulate NURR transcript levels in primary synoviocytes and synovium explant tissue (FIG. 6).
(§2) For FIG. 6 each membrane was reprobed with a GAPDH cDNA to control for loading and transfer. NURR1 mRNA levels were measured by northern analysis using total RNA extracted from synoviocytes left untreated [C] or cultured for the time indicated with (A) TNFα (10 ng/ml) in the presence or absence of pre-treatment with 10^−8M dexamethasone (DEX). (B) IL-1β(10 ng/ml) in the presence or absence of pretreatment with 2 μM indomethacin (INDO) or 10^−8M DEX. (C) or synovial explants cultured with IL-6 (10 ng/ml). (D) 1 μM PGE2. (E) 25 μM forskolin (FOR) or […] for 1h in the absence or presence of 5 µg/ml cycloheximide (CHX).
(§3) Northern analysis of primary RA synoviocytes were untreated (lane 1) or treated for 1 hour with TNFα (lane 2), IL-1β (lane 3), and PGE2 (lane 4). TNFα and IL-1β were used at a concentration of 10 ng/mL and PGE2 was at a concentration of 10^-6 M.
(§4) Total RNA was isolated from cultured primary synoviocytes or synovial explants. RNA was quantitated by UV absorption and 10 μg of total RNA were electrophoresed on a standard northern gel and transferred to nylon membrane (BioRad, Richmond, Calif.). NURR1 and NUR77 cDNA probes (Murphy and Conneely, 1997), spanning the amino terminal region to avoid cross-hybridization, were radiolabeled to a high specific activity using [α-^32P] dCTP and a random primer labeling system (Promega, Madison, Wis.). Blots were exposed to film at −80° C. using intensifying screens and autoradiographic intensity was quantitated using an imaging densitometer.

CRH NBRE = assay: EMSA of synoviocyte nuclear extracts with CRH NBRE; settings: synoviocytes stimulated 1 h; 25 μM forskolin, 10 ng/ml TNFα, IL-1β or PGE2
Method: To analyze the effects of cytokines on the ability of NURR1 to bind DNA, EMSA was performed to examine the binding properties of NURR1 to the consensus sequence (NBRE) in the human CRH promoter. […] Binding of the larger protein complex, and to a lesser extent the smaller complex, was inhibited by 50× molar excess of unlabeled homologous oligonucleotide.
Nuclear extracts from untreated, 25 μM forskolin (FOR) or lOng/ml TNFα treated synoviocytes (1 h) were compared for increased binding to the α^32 P-labeled CRH NBRE. DNA-protein interactions were assayed in the presence of 50× molar excess of homologous oligonucleotide or NURR1 specific antiserum (NURR1 Ab).
Nuclear protein extracts were prepared as previously described (Murphy and Conneely, 1997). For the EMSAs, 1 μg of nuclear extract was incubated for 20 mins in the presence of 20 mM Hepes (pH 7.9), 5 mM MgCl2, 20% glycerol, 100 mM KCL, 0.2 mM EDTA, 8% Ficoll, […], 500 ng/μl poly (deoxyinosinicdeoxycytidylic) acid, 50 mM dithiothreitol (DTT) and [α-^32P]-dCTP labeled doublestranded oligonucleotide. For supershifts experiments, antibodies to NURR1 (Santa Cruz Biotechnology, Santa Cruz, Calif.) were added following the initial 20-minute incubation, then incubated for an additional 20 minutes. The samples were electrophoresed through a 5.5% non-denaturing polyacrylamide gel in 0.5× TrisBorate-EDTA (TBE) buffer. For competition studies, the reaction was performed as described with the indicated concentrations of unlabeled probe. The oligonucleotide CRH NBRE 5′-[…]-3′ (SEQ ID NO:152) was used in the mobility shift assay.

NOR1 mRNA = assay: Northern analysis of NOR1 mRNA in primary RA synoviocytes; settings: 1 hour, TNFα 10 ng/mL, PGE2 10^-6 M, vs untreated
Method: The pathological importance of the NURR transcription factors in inflammatory joint disease was further examined by determining the ability of proinflammatory agonists to regulate NOR1 transcript levels in primary synoviocytes. (FIG. 14). Expression levels of NOR1 and NURR1 mRNA increased compared to the untreated synoviocytes upon treatment with TNFα.
as §3, §4

NURR1 mRNA [2] = assay: Northern blot of NURR1 mRNA in synovium explants; settings: RA and PsA synovium explants; CRH 10^−8 M; IL-6 10 ng/ml
Method: To determine whether the NURR subfamily contribute to CRH signaling in a pathological context, freshly excised RA (FIG. 4A) and PsA synovium explants were incubated with CRH (10^−8 M) and examined for its ability to induce expression of NURR1 and NUR77 transcripts. […] Furthermore, analysis of synovium explants indicates higher endogenous and CRH-inducible NURR1 mRNA compared to NUR77 transcript levels.
as §1, §2, §4

synoviocytes = assay: Synoviocyte morphological transformation (fibroblast-like to stellate); settings: primary PsA synoviocytes, untreated vs TNFα

| binding of nuclear protein complexes with the CRH NBRE (CRH NBRE) | Molecule | NURR1 mRNA levels after stimulation (NURR1 mRNA [1]) | effect in stimulating NURR1 mRNA compared with the other agonists (NURR1 mRNA [1]; PGE2 1 μM, 10^-6 M) | NOR1 mRNA expression levels (NOR1 mRNA) | NURR1 mRNA induction in synovium explants (NURR1 mRNA [2]) | synoviocyte morphology after stimulation (synoviocytes) |
| --- | --- | --- | --- | --- | --- | --- |
| significant increased binding | CCCCC[C@H](O)/C=C/[C@H]1[C@H](O)CC(=O)[C@@H]1C/C=C\CCCC(=O)O [PGE2, reference compound] | rapid and marked increase | most potent and sustained effect | only a moderate increase |  |  |
| significant increased binding | IL-1β: pro-inflammatory cytokine | rapid and marked increase |  |  |  |  |
|  | IL-6: pro-inflammatory cytokine | did not significantly induce |  |  | rapid and marked increase |  |
| significant increased binding | TNFα | rapid and marked increase; also recorded: increased |  | increased |  | stellate shape |
